Measurements published in ChEMBL document CHEMBL1909046, “DrugMatrix in vitro pharmacology data”.

Tests used:
Substance-K receptor = molecular target: T1, Substance-K receptor (Homo sapiens, UniProt P21452); assay type: cell membranes, CHO, Membrane; further: in other assays of this panel Not Active means under 50% inhibition at 10 µM
T1 sequence (P21452 whole entry): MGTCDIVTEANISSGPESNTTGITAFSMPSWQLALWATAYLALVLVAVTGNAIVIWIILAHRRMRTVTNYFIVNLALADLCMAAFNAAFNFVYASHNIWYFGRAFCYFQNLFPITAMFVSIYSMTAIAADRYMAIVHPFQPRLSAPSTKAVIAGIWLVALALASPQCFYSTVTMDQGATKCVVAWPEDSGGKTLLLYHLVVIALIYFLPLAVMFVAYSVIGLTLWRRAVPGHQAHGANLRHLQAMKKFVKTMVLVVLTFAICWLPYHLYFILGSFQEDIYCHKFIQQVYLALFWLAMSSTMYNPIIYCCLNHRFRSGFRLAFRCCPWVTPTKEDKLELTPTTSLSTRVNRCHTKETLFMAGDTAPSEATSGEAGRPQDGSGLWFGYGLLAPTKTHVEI

[1] = molecular target: Kappa-type opioid receptor (Homo sapiens, UniProt P41145); test: DRUGMATRIX: Opiate kappa (OP2, KOP) radioligand binding (ligand: [3H] Diprenorphine); assay type: cell membranes, HEK293, Membrane; conditions: Not Active = under 50% inhibition at 10 µM
Chain of Kappa-type opioid receptor (P41145 whole entry): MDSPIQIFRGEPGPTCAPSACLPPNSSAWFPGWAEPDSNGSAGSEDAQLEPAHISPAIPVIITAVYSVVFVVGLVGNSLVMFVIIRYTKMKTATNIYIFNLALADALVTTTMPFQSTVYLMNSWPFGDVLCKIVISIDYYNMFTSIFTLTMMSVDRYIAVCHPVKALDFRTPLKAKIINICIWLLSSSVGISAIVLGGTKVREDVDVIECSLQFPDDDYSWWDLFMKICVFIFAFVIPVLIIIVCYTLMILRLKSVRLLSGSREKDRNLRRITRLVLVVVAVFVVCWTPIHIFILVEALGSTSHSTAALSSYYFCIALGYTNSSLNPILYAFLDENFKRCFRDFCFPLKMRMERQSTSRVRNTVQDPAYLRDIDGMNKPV

[2] = molecular target: Epidermal growth factor receptor (Homo sapiens, UniProt P00533); test: DRUGMATRIX: Protein Tyrosine Kinase, EGF Receptor enzyme inhibition (substrate: Poly(Glu:Tyr)); assay type: cell-based, Insect cells; conditions: Not Active = under 50% inhibition at 10 µM
[3] = molecular target: 5-hydroxytryptamine receptor 6 (Homo sapiens, UniProt P50406); assay type: cell membranes, HeLa, Membrane; further: in other assays of this panel Not Active means under 50% inhibition at 10 µM
Chain of 5-hydroxytryptamine receptor 6 (P50406 whole entry): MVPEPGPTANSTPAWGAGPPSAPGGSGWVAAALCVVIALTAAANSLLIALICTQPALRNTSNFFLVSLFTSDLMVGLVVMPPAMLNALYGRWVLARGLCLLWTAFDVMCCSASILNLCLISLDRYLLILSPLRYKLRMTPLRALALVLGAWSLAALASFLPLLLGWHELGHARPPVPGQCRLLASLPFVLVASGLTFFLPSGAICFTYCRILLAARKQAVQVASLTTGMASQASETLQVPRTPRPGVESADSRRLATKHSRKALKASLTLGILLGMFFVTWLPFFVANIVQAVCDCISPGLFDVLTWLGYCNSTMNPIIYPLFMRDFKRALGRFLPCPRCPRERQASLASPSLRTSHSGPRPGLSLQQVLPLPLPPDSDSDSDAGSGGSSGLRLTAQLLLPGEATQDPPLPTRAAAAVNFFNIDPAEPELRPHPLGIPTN

[4] = molecular target: Mitogen-activated protein kinase 1 (Homo sapiens, UniProt P28482); test: DRUGMATRIX: Protein Serine/Threonine Kinase, ERK2 enzyme inhibition (substrate: Myelin Basic Protein); set-up: species or system Escherichia coli; conditions: Not Active = under 50% inhibition at 10 µM
Chain of Mitogen-activated protein kinase 1 (P28482 whole entry): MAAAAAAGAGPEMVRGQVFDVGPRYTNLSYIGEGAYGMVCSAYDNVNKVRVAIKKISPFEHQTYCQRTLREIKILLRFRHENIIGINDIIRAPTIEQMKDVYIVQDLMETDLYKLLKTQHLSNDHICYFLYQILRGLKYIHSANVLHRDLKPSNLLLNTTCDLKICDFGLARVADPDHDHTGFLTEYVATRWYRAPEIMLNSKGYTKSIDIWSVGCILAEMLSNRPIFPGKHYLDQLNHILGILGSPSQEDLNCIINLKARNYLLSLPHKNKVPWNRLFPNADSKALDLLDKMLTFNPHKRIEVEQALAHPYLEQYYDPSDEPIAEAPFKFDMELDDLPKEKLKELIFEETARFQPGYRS

Cannabinoid receptor 1 = Cannabinoid receptor 1 (Homo sapiens, UniProt P21554); assay type: cell membranes, Membrane; conditions: chem-1; further: in other assays of this panel Not Active means under 50% inhibition at 10 µM
Chain of Cannabinoid receptor 1 (P21554 whole entry): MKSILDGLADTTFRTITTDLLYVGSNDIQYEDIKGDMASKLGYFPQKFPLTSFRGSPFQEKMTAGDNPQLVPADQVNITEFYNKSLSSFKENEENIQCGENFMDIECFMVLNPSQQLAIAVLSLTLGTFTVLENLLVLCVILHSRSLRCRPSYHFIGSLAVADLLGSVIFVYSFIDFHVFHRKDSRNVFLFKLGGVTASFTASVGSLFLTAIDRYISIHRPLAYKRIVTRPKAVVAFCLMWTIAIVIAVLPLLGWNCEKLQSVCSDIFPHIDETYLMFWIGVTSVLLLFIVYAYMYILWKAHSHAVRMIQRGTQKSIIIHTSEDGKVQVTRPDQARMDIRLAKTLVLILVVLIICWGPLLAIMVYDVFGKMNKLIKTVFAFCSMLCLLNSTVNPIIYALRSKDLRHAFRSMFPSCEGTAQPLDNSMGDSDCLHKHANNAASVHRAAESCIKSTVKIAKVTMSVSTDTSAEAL

Row | Compound | IC50 ([2]; insect cells) | IC50 ([3]; hela) | IC50 [4] | IC50 (Cannabinoid receptor 1) | IC50 (Substance-K receptor; cho) | IC50 ([1]; hek293) | further results
1 | CC(C)(C)NC(=O)[C@@H]1C[C@@H]2CCCC[C@@H]2CN1C[C@@H](O)[C@H](Cc1ccccc1)NC(=O)[C@H](CC(N)=O)NC(=O)c1ccc2ccccc2n1 | Not Active | Not Active | Not Active | Not Active | – | – | IC50 (Substance-K receptor; read-out: IC50): 6.21 µM; Ki (Substance-K receptor; read-out: Ki): 2.07 µM; Ki [1]: 2.78 µM; IC50 ([1]; read-out: IC50): 6.95 µM
2 | CC(=O)[C@@]1(O)CC[C@H]2[C@@H]3C[C@H](C)C4=CC(=O)CC[C@]4(C)[C@H]3CC[C@@]21C | Not Active | Not Active | Not Active | Not Active | Not Active | Not Active | –
3 | N[C@@H](Cc1ccc(N(CCCl)CCCl)cc1)C(=O)O | Not Active | Not Active | Not Active | Not Active | Not Active | – | –
4 | CCCCc1oc2ccccc2c1C(=O)c1cc(I)c(OCCN(CC)CC)c(I)c1 [AMIODARONE] | Not Active | – | Not Active | Not Active | – | – | IC50 (Substance-K receptor; read-out: IC50): 19.3 µM; Ki (Substance-K receptor; read-out: Ki): 6.44 µM; IC50 ([3]; read-out: IC50): 19.4 µM; Ki ([3]; read-out: Ki): 9.03 µM
5 | OCCN(CCO)c1nc(N2CCCCC2)c2nc(N(CCO)CCO)nc(N3CCCCC3)c2n1 [DIPYRIDAMOLE] | Not Active | Not Active | Not Active | Not Active | Not Active | Not Active | –
6 | Cc1oncc1C(=O)Nc1ccc(C(F)(F)F)cc1 [LEFLUNOMIDE] | Not Active | Not Active | Not Active | Not Active | Not Active | Not Active | –
7 | c1ccc([C@H]2CN3CCSC3=N2)cc1 [LEVAMISOLE] | Not Active | Not Active | Not Active | Not Active | Not Active | Not Active | –
8 | N[C@@H](Cc1ccc(O)c(O)c1)C(=O)O [LEVODOPA] | – | Not Active | Not Active | Not Active | Not Active | Not Active | IC50 ([2]; read-out: IC50): 2.88 µM
9 | N[C@@H](Cc1cc(I)c(Oc2ccc(O)c(I)c2)c(I)c1)C(=O)O [LIOTHYRONINE] | Not Active | Not Active | Not Active | Not Active | Not Active | Not Active | –
10 | O=NN(CCCl)C(=O)NC1CCCCC1 [LOMUSTINE] | Not Active | Not Active | Not Active | Not Active | Not Active | Not Active | –
11 | CCOC(=O)N1CCC(=C2c3ccc(Cl)cc3CCc3cccnc32)CC1 [LORATADINE] | Not Active | Not Active | Not Active | Not Active | Not Active | Not Active | –
12 | Cn1ccnc1S [METHIMAZOLE] | Not Active | Not Active | Not Active | Not Active | Not Active | Not Active | –
13 | CC[C@@H](CO)NC(=O)[C@@H]1C=C2c3cccc4[nH]cc(c34)C[C@H]2N(C)C1 [METHYLERGONOVINE] | Not Active | – | Not Active | Not Active | Not Active | – | IC50 ([3]; read-out: IC50): 0.00254 µM; Ki ([3]; read-out: Ki): 0.00118 µM
14 | COc1nc(C)nc(Cl)c1NC1=NCCN1 [MOXONIDINE] | Not Active | Not Active | Not Active | Not Active | Not Active | Not Active | –
15 | COc1c(C)c2c(c(O)c1C/C=C(\C)CCC(=O)O)C(=O)OC2 [MYCOPHENOLIC ACID] | Not Active | Not Active | Not Active | Not Active | Not Active | Not Active | –
16 | O=c1ncn2nc(Sc3ccc(F)cc3F)ccc2c1-c1c(Cl)cccc1Cl [NEFLAMAPIMOD] | Not Active | Not Active | Not Active | Not Active | Not Active | Not Active | –
17 | CN1CCN(CCCN2c3ccccc3Sc3ccc(Cl)cc32)CC1 [PROCHLORPERAZINE] | Not Active | – | Not Active | Not Active | Not Active | Not Active | IC50 ([3]; read-out: IC50): 0.267 µM; Ki ([3]; read-out: Ki): 0.124 µM
18 | CO[C@H]1/C=C/O[C@@]2(C)Oc3c(C)c(O)c4c(O)c(c(/C=N/N5CCN(C)CC5)c(O)c4c3C2=O)NC(=O)/C(C)=C\C=C\[C@H](C)[C@H](O)[C@@H](C)[C@@H](O)[C@@H](C)[C@H](OC(C)=O)[C@@H]1C [RIFAMPIN] | Not Active | Not Active | Not Active | Not Active | Not Active | Not Active | –

Row | Compound | IC50 ([2]; insect cells) | IC50 ([3]; hela) | IC50 [4] | IC50 (Cannabinoid receptor 1) | IC50 (Substance-K receptor; cho) | IC50 ([1]; hek293) | further results
19 | Nc1nc2ccc(OC(F)(F)F)cc2s1 [RILUZOLE] | Not Active | Not Active | Not Active | Not Active | Not Active | Not Active | –
20 | Cc1nc2n(c(=O)c1CCN1CCC(c3noc4cc(F)ccc34)CC1)CCCC2 [RISPERIDONE] | Not Active | Not Active | Not Active | Not Active | Not Active | Not Active | –
21 | C=CCC1(C(C)CCC)C(=O)NC(=O)NC1=O (stereo not drawn) [SECOBARBITAL] | Not Active | Not Active | Not Active | Not Active | Not Active | Not Active | –
22 | C[C@@H]1CN(c2c(F)c(N)c3c(=O)c(C(=O)O)cn(C4CC4)c3c2F)C[C@H](C)N1 [SPARFLOXACIN] | Not Active | Not Active | Not Active | Not Active | Not Active | Not Active | –
23 | Cc1noc(NS(=O)(=O)c2ccc(N)cc2)c1C [SULFISOXAZOLE] | Not Active | Not Active | Not Active | Not Active | Not Active | Not Active | –
24 | CSc1ccc(/C=C2/C(C)=C(CC(=O)O)c3cc(F)ccc32)cc1 [SULINDAC SULFIDE] | – | Not Active | – | Not Active | Not Active | Not Active | IC50 ([2]; read-out: IC50): 24 µM; IC50 ([4]; read-out: IC50): 1.09 µM
25 | Nc1c2c(nc3ccccc13)CCCC2 [TACRINE] | Not Active | Not Active | Not Active | Not Active | Not Active | Not Active | –
26 | CC/C(=C(\c1ccccc1)c1ccc(OCCN(C)C)cc1)c1ccccc1 [TAMOXIFEN] | – | – | Not Active | Not Active | – | – | IC50 (Substance-K receptor; read-out: IC50): 3.67 µM; Ki (Substance-K receptor; read-out: Ki): 1.22 µM; Ki [1]: 6.25 µM; IC50 ([2]; read-out: IC50): 3.55 µM; IC50 ([3]; read-out: IC50): 2.68 µM; Ki ([3]; read-out: Ki): 1.24 µM
27 | CC(C)N1CCN(c2ccc(OCC3COC(Cn4cncn4)(c4ccc(Cl)cc4Cl)O3)cc2)CC1 (stereo not drawn) [TERCONAZOLE] | Not Active | Not Active | Not Active | Not Active | Not Active | Not Active | –
28 | Nc1nc2nc[nH]c2c(=S)[nH]1 [THIOGUANINE] | Not Active | Not Active | Not Active | Not Active | Not Active | Not Active | –
29 | Cc1cccc(N(C)C(=S)Oc2ccc3ccccc3c2)c1 [TOLNAFTATE] | Not Active | Not Active | Not Active | Not Active | Not Active | Not Active | –
30 | NC[C@H]1CC[C@H](C(=O)O)CC1 [TRANEXAMIC ACID] | Not Active | Not Active | Not Active | Not Active | Not Active | Not Active | –
31 | CC1(C)O[C@@H]2C[C@H]3[C@@H]4CCC5=CC(=O)C=C[C@]5(C)[C@@]4(F)[C@@H](O)C[C@]3(C)[C@]2(C(=O)CO)O1 [TRIAMCINOLONE ACETONIDE] | Not Active | Not Active | Not Active | Not Active | Not Active | Not Active | –
32 | NS(=O)(=O)c1cc2c(cc1Cl)NC(C(Cl)Cl)NS2(=O)=O (stereo not drawn) [TRICHLORMETHIAZIDE] | Not Active | Not Active | Not Active | Not Active | Not Active | Not Active | –
33 | Cc1c(C)c2c(c(C)c1O)CCC(C)(COc1ccc(CC3SC(=O)NC3=O)cc1)O2 (stereo not drawn) [TROGLITAZONE] | Not Active | Not Active | – | Not Active | Not Active | Not Active | IC50 ([4]; read-out: IC50): 1.24 µM
34 | N[C@@H]1[C@H]2CN(c3nc4c(cc3F)c(=O)c(C(=O)O)cn4-c3ccc(F)cc3F)C[C@@H]12 [TROVAFLOXACIN] | – | Not Active | Not Active | Not Active | Not Active | Not Active | –
35 | N#CC(C#N)=Cc1ccc(O)c(O)c1 [TYRPHOSTIN 23] | – | Not Active | Not Active | Not Active | Not Active | Not Active | –
36 | SODIUM NITROPRUSSIDE | Not Active | Not Active | Not Active | Not Active | Not Active | – | Ki (Substance-K receptor; cho): Not Active; Ki ([2]; insect cells): Not Active; Ki ([3]; hela): Not Active; Ki [4]: Not Active; Ki (Cannabinoid receptor 1): Not Active
